Test results reported in patent US20050239173A1, “Production of amino sugars” (Cargill, Inc., priority 2003, published 2005).

What was measured:
[1] = target: T1, E. coli N-acetylglucosamine-6-phosphate deacetylase (Escherichia coli, UniProt P0AF18); assay: Enzymatic deacetylation of N-acetylglucosamine followed over time (Elson and Morgan assay); format: biochemical; conditions: 37° C.; for [Glucosamine]: 0.1 mL of 500 mM N-acetylglucosamine in 0.2 mL, Tris-HCl pH 7.8, nagA cell extract
T1 construct: The Xa protease recognition site (IEGR) sits directly in front of the start codon of the gene of interest; His-tag (N); S-tag (N); Factor Xa recognition site (IEGR) (N); made in house; host or cells: E. coli BL21(DE3), pET30(Xa/LIC)
Procedure: Fermentation broth and cell extract samples were routinely assayed using the method of Elson and Morgan (Biochem. J. 27:1824-1828) described by Zalkin (1985, Method Enzymol. 113:278-281) and Roden et al. (1997, Anal. Biochem. 254:240-248). Typically, to 0.08 mL of fermentation broth or 0.015 to 0.02 mL of cell extract was added 0.01 mL of saturated sodium bicarbonate solution and 0.01 mL of cold, freshly prepared 5% aqueous acetic anhydride. After a 3 minute incubation at room temperature, the mixture was incubated at 100° C. for 3 min to drive off the excess acetic anhydride. After cooling to room temperature, 0.12 mL of potassium borate, pH 9.2, was added and the mixture was incubated at 100° C. for 3 min. After cooling to room temperature, 1.0 mL of Ehrlich's reagent (1 gram p-dimethylaminobenzaldehyde in 100 mL glacial acetic acid containing 0.125 M HCl) was added to each tube. The tubes were incubated at 37° C. for 20 min and the absorbance at 585 nm was measured. All samples were assayed in duplicate. A standard curve was generated using 0.005 to 0.1 μmole glucosamine for quantification of product formation. Samples were assayed with and without the acetic anhydride addition to determine the amounts of glucosamine and N-acetylglucosamine present in the sample. The amount of N-acetylglucosamine was calculated from the results of assays without the acetic anhydride addition. The amount of glucosamine was calculated as the difference between the results with and without the acetic anhydride addition.
The enzymatic deacetylation of N-acetylglucosamine was followed over time. In a total of 0.2 mL was mixed 0.1 mL of 500 mM N-acetylglucosamine, 0.02 mL of 0.5 M Tris-HCl, pH 7.8 and nagA protein (cell extract fraction; 3.5 mg/mL protein). The mixtures were incubated from 0 to 120 min at 37° C. To distinguish between glucosamine and N-acetylglucosamine using the Elson and Morgan method described in the Materials and Methods section, the product formation in the samples was measured with and without the acetylation step. The amount of glucosamine was calculated as the difference between the assay results with and without the acetylation step. After 120 min approximately 74% of the substrate N-acetylglusosamine was converted to glucosamine.

[2] = test system: S. cerevisiae strain BY4742; assay: Growth of S. cerevisiae strains in the presence of glucosamine (OD600); format: cell-based, Saccharomyces cerevisiae; conditions: BY4742 GFA1pESCHis
Procedure: (§1) S. cerevisiae strains BY4742 and BY4743 transformed with pESCHis carrying the GFA1 insert were grown in 5 mL SC-His medium containing 2% glucose overnight at 30° C. with shaking. An aliquot (0.5 mL) from each culture was transferred to 6 flasks containing 50 mL of SC-His medium containing 2% glucose. Glucosamine at the following concentrations was added to the flasks: 0, 2, 6, 10, 15, 20 mg/mL for each strain. The incubation was continued for 28 h at 30° C. with shaking. At 3, 16 and 28 h samples were withdrawn and the optical density at 600 nm was measured.

[3] = test system: S. cerevisiae strain BY4743; assay: as above; format: cell-based, Saccharomyces cerevisiae; conditions: BY4743 GFA1pESCHis
Procedure: as §1

[4] = test system: S. cerevisiae strain BY4742; assay: as above; format: cell-based, Saccharomyces cerevisiae; conditions: parental strains of Examples 1-3 (BY4742 and BY4743); concentrations of glucosamine as high as 20 g/L
osteoarthritis = conditions: patients; cited from earlier work
[5] = target: glucosamine-6-phosphate synthase (Escherichia coli, UniProt P17169); conditions: White, Biochem. J. 106:847-858 (1968); cited from earlier work
glucosamine-6-phosphate synthase, sequence (P17169 whole entry): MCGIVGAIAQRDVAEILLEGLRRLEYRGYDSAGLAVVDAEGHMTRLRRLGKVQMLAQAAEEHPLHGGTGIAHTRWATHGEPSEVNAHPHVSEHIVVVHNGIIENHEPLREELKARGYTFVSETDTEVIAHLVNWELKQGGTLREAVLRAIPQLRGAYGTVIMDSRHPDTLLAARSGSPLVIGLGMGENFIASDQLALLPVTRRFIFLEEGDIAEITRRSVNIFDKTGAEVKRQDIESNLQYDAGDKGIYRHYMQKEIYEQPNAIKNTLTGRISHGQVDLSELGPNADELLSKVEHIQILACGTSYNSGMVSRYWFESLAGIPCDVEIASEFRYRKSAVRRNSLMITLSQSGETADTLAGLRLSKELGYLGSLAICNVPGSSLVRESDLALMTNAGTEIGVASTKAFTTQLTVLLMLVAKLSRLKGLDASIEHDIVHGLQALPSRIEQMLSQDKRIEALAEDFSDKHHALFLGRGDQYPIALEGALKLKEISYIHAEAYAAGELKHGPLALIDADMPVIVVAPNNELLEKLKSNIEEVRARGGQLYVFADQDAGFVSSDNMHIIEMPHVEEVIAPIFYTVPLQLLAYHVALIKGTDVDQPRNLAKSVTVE

SMILES: CC(=O)N[C@@H](C=O)[C@@H](O)[C@H](O)[C@H](O)CO [N-acetylglucosamine, 2-acetamino-2-deoxy-D-glucose]
- [Glucosamine] ([1]; 0 min): 0.0 mM
- [Glucosamine] ([1]; 15 min): 126.3 mM
- [Glucosamine] ([1]; 30 min): 136.3 mM
- [Glucosamine] ([1]; 60 min): 161.3 mM
- [Glucosamine] ([1]; 120 min): 185.0 mM
- substrate converted to glucosamine ([1]; after 120 min, nagA cell extract): approximately 74%

SMILES: N[C@H]1C(O)O[C@H](CO)[C@@H](O)[C@@H]1O (stereo partly shown) [glucosamine, 2-amino-2-deoxyglucopyranose]
- OD600 ([2]; glucosamine 2.0 mg/mL, 3 h): 0.71
- OD600 ([2]; glucosamine 2.0 mg/mL, 16 h): 3.06
- OD600 ([2]; glucosamine 2.0 mg/mL, 28 h): 3.32
- OD600 ([2]; glucosamine 6.0 mg/mL, 3 h): 0.66
- OD600 ([2]; glucosamine 6.0 mg/mL, 16 h): 2.98
- OD600 ([2]; glucosamine 6.0 mg/mL, 28 h): 3.27
- OD600 ([2]; glucosamine 10.0 mg/mL, 3 h): 0.64
- OD600 ([2]; glucosamine 10.0 mg/mL, 16 h): 2.87
- OD600 ([2]; glucosamine 10.0 mg/mL, 28 h): 3.06
- OD600 ([2]; glucosamine 15.0 mg/mL, 3 h): 0.60
- OD600 ([2]; glucosamine 15.0 mg/mL, 16 h): 2.92
- OD600 ([2]; glucosamine 15.0 mg/mL, 28 h): 3.22
- OD600 ([2]; glucosamine 20.0 mg/mL, 3 h): 0.57
- OD600 ([2]; glucosamine 20.0 mg/mL, 16 h): 2.84
- OD600 ([2]; glucosamine 20.0 mg/mL, 28 h): 3.02
- OD600 ([3]; glucosamine 2.0 mg/mL, 3 h): 0.74
- OD600 ([3]; glucosamine 2.0 mg/mL, 16 h): 4.12
- OD600 ([3]; glucosamine 2.0 mg/mL, 28 h): 4.69
- OD600 ([3]; glucosamine 6.0 mg/mL, 3 h): 0.76
- OD600 ([3]; glucosamine 6.0 mg/mL, 16 h): 3.99
- OD600 ([3]; glucosamine 6.0 mg/mL, 28 h): 5.02
- OD600 ([3]; glucosamine 10.0 mg/mL, 3 h): 0.66
- OD600 ([3]; glucosamine 10.0 mg/mL, 16 h): 4.18
- OD600 ([3]; glucosamine 10.0 mg/mL, 28 h): 4.36
- OD600 ([3]; glucosamine 15.0 mg/mL, 3 h): 0.68
- OD600 ([3]; glucosamine 15.0 mg/mL, 16 h): 4.00
- OD600 ([3]; glucosamine 15.0 mg/mL, 28 h): 4.14
- OD600 ([3]; glucosamine 20.0 mg/mL, 3 h): 0.38
- OD600 ([3]; glucosamine 20.0 mg/mL, 16 h): 3.78
- OD600 ([3]; glucosamine 20.0 mg/mL, 28 h): 3.98
- effect of glucosamine on the parental strains [4]: not affected
- effect on joint structure (osteoarthritis): improve joint structure
- effect on pain of osteoarthritis (osteoarthritis): reduce the pain of osteoarthritis in some patients

SMILES: N[C@H]1C(O)O[C@H](COP(=O)(O)O)[C@@H](O)[C@@H]1O (stereo partly shown) [glucosamine-6-phosphate]
- inhibition of glucosamine-6-phosphate synthase activity [5]: inhibited
